Legend:
FAK [1] = target: T1, FAK (Homo sapiens, UniProt Q05397); assay: biochemical
FAK [2] = target: T1, FAK; assay: Cell-based capture ELISA for inhibition of FAK autophosphorylation [pY397] in U87MG cells; details: Mean FAK Cell Mechanistic IC50 + 50% mP U87MG, + 50% mouse plasma

T1 sequence (Q05397 whole entry): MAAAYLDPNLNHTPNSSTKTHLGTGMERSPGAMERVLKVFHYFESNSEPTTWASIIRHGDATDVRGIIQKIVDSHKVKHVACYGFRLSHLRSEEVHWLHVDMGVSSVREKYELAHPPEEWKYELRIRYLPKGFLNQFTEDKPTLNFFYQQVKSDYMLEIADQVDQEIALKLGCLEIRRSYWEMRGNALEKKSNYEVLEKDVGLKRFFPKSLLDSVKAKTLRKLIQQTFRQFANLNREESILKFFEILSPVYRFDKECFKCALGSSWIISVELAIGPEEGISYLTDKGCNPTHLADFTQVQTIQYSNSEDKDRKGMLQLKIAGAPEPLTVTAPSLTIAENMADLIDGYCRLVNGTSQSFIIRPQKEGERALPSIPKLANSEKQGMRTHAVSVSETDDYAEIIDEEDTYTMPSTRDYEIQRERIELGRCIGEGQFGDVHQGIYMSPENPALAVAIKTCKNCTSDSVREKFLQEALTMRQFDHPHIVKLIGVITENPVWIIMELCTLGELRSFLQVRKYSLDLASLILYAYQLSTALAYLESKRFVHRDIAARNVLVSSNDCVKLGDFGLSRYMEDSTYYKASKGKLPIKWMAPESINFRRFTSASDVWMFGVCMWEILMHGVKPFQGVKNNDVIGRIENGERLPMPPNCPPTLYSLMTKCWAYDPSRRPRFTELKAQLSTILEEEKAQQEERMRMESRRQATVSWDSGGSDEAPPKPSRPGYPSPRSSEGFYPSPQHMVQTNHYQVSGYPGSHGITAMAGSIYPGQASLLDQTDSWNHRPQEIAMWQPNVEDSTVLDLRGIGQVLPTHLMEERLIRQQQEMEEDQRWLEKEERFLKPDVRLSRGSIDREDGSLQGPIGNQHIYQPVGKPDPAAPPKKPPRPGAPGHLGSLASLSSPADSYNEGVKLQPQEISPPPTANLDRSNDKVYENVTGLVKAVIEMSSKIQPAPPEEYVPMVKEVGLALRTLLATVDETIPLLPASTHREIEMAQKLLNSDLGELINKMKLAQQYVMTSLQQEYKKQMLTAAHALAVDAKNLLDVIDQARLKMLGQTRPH

Compound: CCOP(=O)(Cc1ccc(Nc2ncc(C(F)(F)F)c(Nc3ccccc3C(=O)NOC)n2)c(OC)c1)OCC [Example 259, Diethyl (3-methoxy-4-{[4-{[2-(methoxycarbamoyl)phenyl]amino}-5-(trifluoromethyl)pyrimidin-2-yl]amino}benzyl)phosphonate]
- IC50 (FAK [1]): < 1000 nM
- IC50 (FAK [2]): < 1000 nM

Compound: CCOP(=O)(Cc1ccc(Nc2ncc(C(F)(F)F)c(Nc3ccc(C4=CCNCC4)c4c3C(=O)N(C)C4)n2)c(OC)c1)OCC [Example 262, Diethyl (3-methoxy-4-{[4-{[2-methyl-3-oxo-7-(1,2,3,6-tetrahydropyridin-4-yl)-2,3-dihydro-1H-isoindol-4-yl]amino}-5-(trifluoromethyl)pyrimidin-2-yl]amino}benzyl)phosphonate]
- IC50 (FAK [1]): < 1000 nM
- IC50 (FAK [2]): < 1000 nM

Compound: CCOP(=O)(Cc1ccc(Nc2ncc(C(F)(F)F)c(Nc3ccc(C4CCNCC4)c4c3C(=O)N(C)C4)n2)c(OC)c1)OCC [Example 263, Diethyl (3-methoxy-4-{[4-{[2-methyl-3-oxo-7-(piperidin-4-yl)-2,3-dihydro-1H-isoindol-4-yl]amino}-5-(trifluoromethyl)pyrimidin-2-yl]amino}benzyl)phosphonate]
- IC50 (FAK [1]): < 1000 nM
- IC50 (FAK [2]): < 1000 nM

Compound: CCOP(=O)(Cc1ccc(Nc2ncc(C(F)(F)F)c(Nc3ccc(C4=CCN(C)CC4)c4c3C(=O)N(C)C4)n2)c(OC)c1)OCC [Example 264, Diethyl (3-methoxy-4-{[4-{[2-methyl-7-(1-methyl-1,2,3,6-tetrahydropyridin-4-yl)-3-oxo-2,3-dihydro-1H-isoindol-4-yl]amino}-5-(trifluoromethyl)pyrimidin-2-yl]amino}benzyl)phosphonate]
- IC50 (FAK [1]): < 1000 nM
- IC50 (FAK [2]): < 1000 nM

Compound: CCOP(=O)(Cc1ccc(Nc2ncc(C(F)(F)F)c(Nc3ccc([C@H]4CC[C@@H](C(=O)O)CC4)c4c3C(=O)N(C)C4)n2)cn1)OCC [Example 267, cis-4-(7-{[2-({6-[(Diethoxyphosphoryl)methyl]pyridin-3-yl}amino)-5-(trifluoromethyl)pyrimidin-4-yl]amino}-2-methyl-1-oxo-2,3-dihydro-1H-isoindol-4-yl)cyclohexanecarboxylic acid]
- IC50 (FAK [1]): > 10000 nM
- IC50 (FAK [2]): 1000 to 10000 nM

Compound: CCOP(=O)(Cc1ccc(Nc2ncc(C(F)(F)F)c(Nc3ccc([C@H]4CC[C@H](C(=O)O)CC4)c4c3C(=O)N(C)C4)n2)cn1)OCC [Example 268, trans-4-(7-{[2-({6-[(diethoxyphosphoryl)methyl]pyridin-3-yl}amino)-5-(trifluoromethyl)pyrimidin-4-yl]amino}-2-methyl-1-oxo-2,3-dihydro-1H-isoindol-4-yl)cyclohexanecarboxylic acid]
- IC50 (FAK [1]): 1000 to 10000 nM
- IC50 (FAK [2]): 1000 to 10000 nM

Compound: CCOP(=O)(Cc1ccc(Nc2ncc(C(F)(F)F)c(Nc3ccc(C4CCN(C)CC4)c4c3C(=O)N(C)C4)n2)c(OC)c1)OCC [Example 269, Diethyl (3-methoxy-4-{[4-{[2-methyl-7-(1-methylpiperidin-4-yl)-3-oxo-2,3-dihydro-1H-isoindol-4-yl]amino}-5-(trifluoromethyl)pyrimidin-2-yl]amino}benzyl)phosphonate]
- IC50 (FAK [1]): < 1000 nM
- IC50 (FAK [2]): < 1000 nM

Compound: CCOP(=O)(Cc1ccc(Nc2ncc(C(F)(F)F)c(Nc3ccc(-c4ccc(C(=O)O)cc4)c4c3C(=O)N(C)C4)n2)c(OC)c1)OCC [Example 270, 4-(7-{[2-({4-[(diethoxyphosphoryl)methyl]-2-methoxyphenyl}amino)-5-(trifluoromethyl)pyrimidin-4-yl]amino}-2-methyl-1-oxo-2,3-dihydro-1H-isoindol-4-yl)benzoic acid]
- IC50 (FAK [1]): < 1000 nM
- IC50 (FAK [2]): 1000 to 10000 nM

Compound: CCOP(=O)(Cc1ccc(Nc2ncc(C(F)(F)F)c(Nc3ccc([C@H]4CC[C@@H](C(=O)NC)CC4)c4c3C(=O)N(C)C4)n2)c(OC)c1)OCC [Example 271, Diethyl (3-methoxy-4-{[4-({2-methyl-7-[cis-4-(methylcarbamoyl)cyclohexyl]-3-oxo-2,3-dihydro-1H-isoindol-4-yl}amino)-5-(trifluoromethyl)pyrimidin-2-yl]amino}benzyl) phosphonate]
- IC50 (FAK [1]): < 1000 nM
- IC50 (FAK [2]): < 1000 nM

Compound: CCOP(=O)(Cc1ccc(Nc2ncc(C(F)(F)F)c(Nc3ccc([C@H]4CC[C@@H](C(N)=O)CC4)c4c3C(=O)N(C)C4)n2)c(OC)c1)OCC [Example 272, Diethyl (4-{[4-{[7-(cis-4-carbamoylcyclohexyl)-2-methyl-3-oxo-2,3-dihydro-1H-isoindol-4-yl]amino}-5-(trifluoromethyl)pyrimidin-2-yl]amino}-3-methoxybenzyl)phosphonate]
- IC50 (FAK [1]): < 1000 nM
- IC50 (FAK [2]): < 1000 nM

Compound: CCOP(=O)(Cc1ccc(Nc2ncc(C(F)(F)F)c(Nc3ccc([C@H]4CC[C@@H](C(=O)N(C)C)CC4)c4c3C(=O)N(C)C4)n2)c(OC)c1)OCC [Example 273, Diethyl (4-{[4-({7-[cis-4-(dimethylcarbamoyl)cyclohexyl]-2-methyl-3-oxo-2,3-dihydro-1H-isoindol-4-yl}amino)-5-(trifluoromethyl)pyrimidin-2-yl]amino}-3-methoxybenzyl)phosphonate]
- IC50 (FAK [1]): < 1000 nM
- IC50 (FAK [2]): < 1000 nM

Compound: CCOP(=O)(Cc1ccc(Nc2ncc(C(F)(F)F)c(Nc3ccc([C@H]4CC[C@@H](C(=O)OCCN(C)C)CC4)c4c3C(=O)N(C)C4)n2)c(OC)c1)OCC [Example 274, 2-(Dimethylamino)ethyl cis-4-(7-{[2-({4-[(diethoxyphosphoryl)methyl]-2-methoxyphenyl}amino)-5-(trifluoromethyl)pyrimidin-4-yl]amino}-2-methyl-1-oxo-2,3-dihydro-1H-isoindol-4-yl)cyclohexanecarboxylate]
- IC50 (FAK [1]): < 1000 nM
- IC50 (FAK [2]): < 1000 nM

Compound: CCOP(=O)(Cc1ccc(Nc2ncc(C(F)(F)F)c(Nc3ccc([C@H]4CC[C@@H](C(=O)NO)CC4)c4c3C(=O)N(C)C4)n2)c(OC)c1)OCC [Example 275, Diethyl (4-{[4-({7-[cis-4-(hydroxycarbamoyl)cyclohexyl]-2-methyl-3-oxo-2,3-dihydro-1H-isoindol-4-yl}amino)-5-(trifluoromethyl)pyrimidin-2-yl]amino}-3-methoxybenzyl)phosphonate]
- IC50 (FAK [1]): < 1000 nM
- IC50 (FAK [2]): < 1000 nM

Compound: CCOP(=O)(Cc1ccc(Nc2ncc(C(F)(F)F)c(Nc3ccc([C@H]4CC[C@@H](C(=O)NOC)CC4)c4c3C(=O)N(C)C4)n2)c(OC)c1)OCC [Example 276, Diethyl (3-methoxy-4-{[4-({7-[cis-4-(methoxycarbamoyl)cyclohexyl]-2-methyl-3-oxo-2,3-dihydro-1H-isoindol-4-yl}amino)-5-(trifluoromethyl)pyrimidin-2-yl]amino}benzyl)phosphonate]
- IC50 (FAK [1]): < 1000 nM
- IC50 (FAK [2]): < 1000 nM

Compound: CCOP(=O)(Cc1ccc(Nc2ncc(C(F)(F)F)c(Nc3ccc([C@H]4CC[C@](C)(C(=O)O)CC4)c4c3C(=O)N(C)C4)n2)c(OC)c1)OCC [Example 282, trans-4-(7-{[2-({4-[(Diethoxyphosphoryl)methyl]-2-methoxyphenyl}amino)-5-(trifluoromethyl)pyrimidin-4-yl]amino}-2-methyl-1-oxo-2,3-dihydro-1H-isoindol-4-yl)-1-methylcyclohexanecarboxylic acid]
- IC50 (FAK [1]): < 1000 nM
- IC50 (FAK [2]): < 1000 nM

Compound: CCOP(=O)(Cc1ccc(Nc2ncc(C(F)(F)F)c(Nc3ccc([C@H]4CC[C@@H](C#N)CC4)c4c3C(=O)N(C)C4)n2)c(OC)c1)OCC [Example 283, Diethyl (4-{[4-{[7-(cis-4-cyanocyclohexyl)-2-methyl-3-oxo-2,3-dihydro-1H-isoindol-4-yl]amino}-5-(trifluoromethyl)pyrimidin-2-yl]amino}-3-methoxybenzyl)phosphonate]
- IC50 (FAK [1]): < 1000 nM
- IC50 (FAK [2]): < 1000 nM

Compound: CCOP(=O)(Cc1ccc(Nc2ncc(C(F)(F)F)c(Nc3ccc([C@H]4CC[C@@](C)(C(=O)O)CC4)c4c3C(=O)N(C)C4)n2)c(OC)c1)OCC [Example 284, cis-4-(7-{[2-({4-[(Diethoxyphosphoryl)methyl]-2-methoxyphenyl}amino)-5-(trifluoromethyl)pyrimidin-4-yl]amino}-2-methyl-1-oxo-2,3-dihydro-1H-isoindol-4-yl)-1-methylcyclohexanecarboxylic acid]
- IC50 (FAK [1]): < 1000 nM
- IC50 (FAK [2]): < 1000 nM

Compound: CCOP(=O)(Cc1ccc(Nc2ncc(C(F)(F)F)c(Nc3ccc([C@H]4CC[C@@](C(=O)O)(N(C)C)CC4)c4c3C(=O)N(C)C4)n2)c(OC)c1)OCC [Example 285, cis-4-(7-{[2-({4-[(diethoxyphosphoryl)methyl]-2-methoxyphenyl}amino)-5-(trifluoromethyl)pyrimidin-4-yl]amino}-2-methyl-1-oxo-2,3-dihydro-1H-isoindol-4-yl)-1-(dimethylamino)cyclohexanecarboxylic acid]
- IC50 (FAK [1]): < 1000 nM
- IC50 (FAK [2]): < 1000 nM

Compound: CCOP(=O)(Cc1ccc(Nc2ncc(C(F)(F)F)c(Nc3ccc([C@H]4CC[C@H](O)CC4)c4c3C(=O)N(C)C4)n2)c(OC)n1)OCC [Example 286, Diethyl [(5-{[4-{[7-(trans-4-hydroxycyclohexyl)-2-methyl-3-oxo-2,3-dihydro-1H-isoindol-4-yl]amino}-5-(trifluoromethyl)pyrimidin-2-yl]amino}-6-methoxypyridin-2-yl)methyl]phosphonate]
- IC50 (FAK [1]): < 1000 nM
- IC50 (FAK [2]): < 1000 nM

Compound: CCOP(=O)(Cc1ccc(Nc2ncc(C(F)(F)F)c(Nc3ccc(N4CCNC(C(=O)O)C4)c4c3C(=O)N(C)C4)n2)c(OC)c1)OCC (stereo not drawn) [Example 287, 4-(7-{[2-({4-[(Diethoxyphosphoryl)methyl]-2-methoxyphenyl}amino)-5-(trifluoromethyl)pyrimidin-4-yl]amino}-2-methyl-1-oxo-2,3-dihydro-1H-isoindol-4-yl)piperazine-2-carboxylic acid]
- IC50 (FAK [1]): < 1000 nM
- IC50 (FAK [2]): 1000 to 10000 nM

Compound: CCOP(=O)(Cc1ccc(Nc2ncc(C(F)(F)F)c(Nc3ccc([C@H]4CC[C@H](OCOP(=O)(O)O)CC4)c4c3C(=O)N(C)C4)n2)c(OC)c1)OCC [Example 288, {[trans-4-(7-{[2-({4-[(diethoxyphosphoryl)methyl]-2-methoxyphenyl}amino)-5-(trifluoromethyl)pyrimidin-4-yl]amino}-2-methyl-1-oxo-2,3-dihydro-1H-isoindol-4-yl)cyclohexyl]oxy}methyl phosphate]
- IC50 (FAK [1]): < 1000 nM
- IC50 (FAK [2]): < 1000 nM

— US9096624B2 (OSI Pharmaceuticals, LLC, priority 2009, dated 2015)
